From PMC8389922, “First-in-Class Cyclic Temporin L Analogue: Design, Synthesis, and Antimicrobial Assessment” (Journal of Medicinal Chemistry, 2021)
Bridge positions count the residues as written; N and C are the ends. Square brackets hold non-standard residues; d marks the D form. Peptide text beside a SMILES is read from it.

Key:
[1] = system: S. aureus MRSA ATCC 43300; experiment: In vitro time kill assay; format: cell-based, Staphylococcus aureus; details: 10^6 CFU/mL, peptide at the MIC (12.5 μM peptide 12; 25 μM peptide 9), 37 °C, CFU counts
Protocol: Thus, 12 was further tested against S. aureus ATCC 43300, a methicillin-resistant strain (MRSA), and compared with the linear precursor 9. […] No growth was observed after 24 h. Peptide 9 was bactericidal as well, by killing MRSA within 10 min, but at a higher concentration (25 μM).
Figure 7 In vitro time kill assay. […] The inhibitory effect on bacterial growth was assessed by measuring the number of CFU obtained after the treatment.
The plates were incubated at 37 °C on an orbital shaker at 120 rpm. Viability assessments were performed at 10 min, 30 min, 1 h, 2 h, and 24 h by plating 0.01 mL of undiluted and 10-fold serially diluted samples onto Mueller–Hinton plates in triplicate. After overnight incubation at 37 °C, bacterial colonies were counted and compared with counts from control cultures.

[2] = 90% fresh human serum (male AB plasma), 37 ± 1 °C, peptide 0.2 mM, MeCN precipitation, RP-UHPLC peak area at 220 nm, triplicate
Protocol: Peptides were incubated with 90% fresh human serum at 37 ± 1 °C within 12 h.[69] The percentage of intact peptide was monitored by calculating the peak area of the chromatogram from RP-HPLC analysis.
The peptide was incubated in a 1.5 mL eppendorf tube with human serum at a final concentration of 0.2 mM, and the mixture was incubated at 37 ± 1 °C for different periods (0.25, 0.75, 1.5, 2, 3, 4, 6, 7, 8, and 12 h). After the incubation period, an aliquot of reaction solution was taken and added MeCN (double volume respect to the aliquot) for the precipitation of serum proteins present in human serum. The produced cloudy solution was cooled (4 °C) for 15 min and then centrifuged at 13 000 rpm for 10 min to remove the serum protein as pellet. Then, the supernatant was analyzed by RP-UHPLC using a linear elution gradient from 10 to 90% MeCN (0.1% TFA) in water (0.1% TFA) over 20 min. A flow rate of 1 mL/min was employed, and the absorbance of the eluting peaks was detected at 220 nm. The proteolytic stability assay was repeated in triplicate.

[3] = CD in SUVs, ratio of ellipticities at 222 and 208 nm; format: physicochemical; details: peptide 8 μM, lipid 100 μM, phosphate buffer 5 mM pH 7.4, 25 °C, >1.0 indicates oligomeric helices
From the text: TEXT PRINTED IN THE PICTURE: (c) 9: DOPG/CL mimicking Gram-positive membrane: θ222/ θ208: 1.7 | (c) 12: DOPG/CL mimicking Gram-positive membrane: θ222/ θ208: 2.6 | (c) 17: DOPG/CL mimicking Gram-positive membrane: θ222/ θ208: 1.9 | (f) 9: DOPE/DOPG/CL mimicking Gram-negative membrane: θ222/ θ208: 1.8 | (f) 12: DOPE/DOPG/CL mimicking Gram-negative membrane: θ222/ θ208: 2.1 | (f) 17: DOPE/DOPG/CL mimicking Gram-negative membrane: θ222/ θ208: 1.7
The ratio of the ellipticities at 222 and 208 nm was calculated to discriminate between monomeric and oligomeric states of helices.[64] As observed in our CD spectra, the ratio θ222/θ208 is always greater than 1.0 in both membranes, indicating an α-helical conformation in its oligomeric state (Figure 4c,f).
SUVs were prepared as reported: lipids (Gram-positive, DOPG/CL, 58/42 ratio in moles; Gram-negative DOPG/DOPE/CL, 63/23/12 ratio in moles) were dissolved in chloroform and an identical volume of peptide solution dissolved in TFE was added.[76] Then, the samples were vortexed and lyophilized overnight. CD spectra were recorded at a peptide concentration of 8 μM and at a lipid final concentration of 100 μM. […] CD spectra were recorded at 25 °C on a Jasco J-715 spectropolarimeter in a 1 cm quartz cell using three consecutive scans from 260 to 190 nm, 3 nm bandwidth, a time constant of 16 s, and a scan rate of 10 nm/min.

**Q.** With CC[C@H](C)[C@H](NC(=O)[C@H](CCCNC(=N)N)NC(=O)[C@@H]1CCC(=O)NCCCC[C@H](NC(=O)[C@H](Cc2ccccc2)NC(=O)[C@H](Cc2c[nH]c3ccccc23)NC(=O)[C@@H]2CCCN2C(=O)[C@@H](NC(=O)[C@@H](N)Cc2ccccc2)C(C)C)C(=O)N[C@@H](CCCCN)C(=O)N[C@@H](Cc2ccccc2)C(=O)N[C@H](CC(C)C)C(=O)N1)C(=O)N[C@@H](CC(C)C)C(N)=O [compound 12] (H-FVPWFKKF[dL]ERIL-NH2; lactam 6-10) as the compound, how does the “time within which the MRSA strain was killed” value [1] read?
**A.** ≤ 30 min

**Q.** And the “time to complete degradation in human serum” value [2]?
**A.** 12 h

**Q.** For CC[C@H](C)[C@H](NC(=O)[C@H](CCCNC(=N)N)NC(=O)[C@@H]1CCCCn2cc(nn2)C[C@H](NC(=O)[C@H](Cc2ccccc2)NC(=O)[C@H](Cc2c[nH]c3ccccc23)NC(=O)[C@@H]2CCCN2C(=O)[C@@H](NC(=O)[C@@H](N)Cc2ccccc2)C(C)C)C(=O)N[C@@H](CCCCN)C(=O)N[C@@H](Cc2ccccc2)C(=O)NC(CC(C)C)C(=O)N1)C(=O)N[C@@H](CC(C)C)C(N)=O (stereo in doubt) [compound 17], which θ222/θ208 ([3]; CD in DOPE/DOPG/CL SUVs) is on record?
**A.** 1.7

**Q.** And the θ222/θ208 ([3]; CD in DOPG/CL SUVs)?
**A.** 1.9
